Results reported in patent US20080280862A1, “Methods, compositions, and kits for the treatment of pain” (priority 2007, published 2008).

Tests used:
[1] = tested on: formalin-induced pain model in rats; test: Formalin pain model, nociceptive behaviors; assay type: in vivo, Sprague-Dawley rats; conditions: Experiment One, amitriptyline
Protocol: The formalin model is a fast, reliable model used to assess potential analgesics ability to block inflammatory pain. The analgesic effects of test article combinations on pain generation are assayed using the formalin-induced pain model in rats. Adult male Sprague-Dawley rats are administered intraperitoneally study drugs (vehicle, TCA, steroid or TCA/Steroid test article combinations) once daily for 2 days (day −2 and day −1) and 30 minutes prior to the formalin injection day on day 0 (time=0). […] To elicit a pain response, dilute formalin (2% in saline) is injected under the skin of the plantar surface of the right hindpaw. The animal is placed in an observation chamber. The pain response is a characteristic biphasic response pattern of nociceptive behaviors (lifting, licking, and biting of the injected paw). Two distinct periods of nociceptive behaviors/activity are observed and recorded: an early phase (phase I) lasting the first 5-10 min and a late phase (phase II) lasting 20-40 min after the injection of formalin. One hour of data is collected (time spent displaying pain behavior) by a blinded observer using a stopwatch. Results are expressed as the number of pain behaviors per 5 minute periods (Table 8 and Table 9).

TNFα = TNFα secretion by human white blood cells stimulated with PMA/ionomycin, synergy score; assay type: cell-based; design: key: S = Σ Idata(Idata−ILoewe) × ln dilution factors; volume over Loewe additivity; conditions: PBMC stimulated with PMA/Ionomycin
Protocol: A 100 μl suspension of diluted human white blood cells contained within each well of a polystyrene 384-well plate (NalgeNunc) was stimulated to secrete TNFα by treatment with a final concentration of 10 ng/mL phorbol 12-myristate 13-acetate (Sigma, P-1585) and 750 ng/mL ionomycin (Sigma, I-0634). Various concentrations of each test compound were added at the time of stimulation. After 16-18 hours of incubation at 37° C. in a humidified incubator, the plate was centrifuged and the supernatant transferred to a white opaque polystyrene 384-well plate (NalgeNunc, Maxisorb) coated with an anti-TNFα antibody (PharMingen, #551220). After a two-hour incubation, the plate was washed (Tecan PowerWasher 384) with PBS containing 0.1% Tween 20 and incubated for an additional one hour with another anti-TNFα antibody that was biotin labeled (PharMingen, #554511) and HRP coupled to strepavidin (PharMingen, #13047E). After the plate was washed with 0.1% Tween 20/PBS, an HRP-luminescent substrate was added to each well and light intensity measured using a LJL Analyst plate luminometer.
The synergy scores calculated for the various combinations of compounds set forth in Table 3 was calculated by the formula S=log fX log fYΣIdata(Idata−ILoewe), summed over all non-single-agent concentration pairs, and where log fX,Y are the natural logarithm of the dilution factors used for each single agent. This effectively calculates a volume between the measured and Loewe additive response surfaces, weighted towards high inhibition and corrected for varying dilution factors.

CN(C)CCC=C1c2ccccc2CCc2ccccc21 [Amitriptyline]
Mean number of behaviors per 5 minute block ([1]; 1 mg/kg, 5 minutes): 233.0 ± 10.0 | Mean number of behaviors per 5 minute block ([1]; 1 mg/kg, 10 minutes): 52.0 ± 23 | Mean number of behaviors per 5 minute block ([1]; 1 mg/kg, 15 minutes): 84.0 ± 28.0 | Mean number of behaviors per 5 minute block ([1]; 1 mg/kg, 20 minutes): 49.0 ± 39.0 | Mean number of behaviors per 5 minute block ([1]; 1 mg/kg, 25 minutes): 228.0 ± 31.0 | Mean number of behaviors per 5 minute block ([1]; 1 mg/kg, 30 minutes): 244.0 ± 19.0 | Mean number of behaviors per 5 minute block ([1]; 1 mg/kg, 35 minutes): 240.0 ± 17.0 | Mean number of behaviors per 5 minute block ([1]; 1 mg/kg, 40 minutes): 214.0 ± 27.0 | Mean number of behaviors per 5 minute block ([1]; 1 mg/kg, 45 minutes): 167.0 ± 31.0 | Mean number of behaviors per 5 minute block ([1]; 1 mg/kg, 50 minutes): 63.0 ± 23.0 | Mean number of behaviors per 5 minute block ([1]; 1 mg/kg, 55 minutes): 39.0 ± 21.0 | Mean number of behaviors per 5 minute block ([1]; 1 mg/kg, 60 minutes): 28.0 ± 23.0 | Mean number of behaviors per 5 minute block ([1]; 3 mg/kg, 5 minutes): 206.0 ± 16.2 | Mean number of behaviors per 5 minute block ([1]; 3 mg/kg, 10 minutes): 59.0 ± 23.2 | Mean number of behaviors per 5 minute block ([1]; 3 mg/kg, 15 minutes): 64.0 ± 21.6 | Mean number of behaviors per 5 minute block ([1]; 3 mg/kg, 20 minutes): 166.0 ± 36.7 | Mean number of behaviors per 5 minute block ([1]; 3 mg/kg, 25 minutes): 229.0 ± 29.4 | Mean number of behaviors per 5 minute block ([1]; 3 mg/kg, 30 minutes): 242.0 ± 27.6 | Mean number of behaviors per 5 minute block ([1]; 3 mg/kg, 35 minutes): 210.0 ± 35.9 | Mean number of behaviors per 5 minute block ([1]; 3 mg/kg, 40 minutes): 242.0 ± 30.3 | Mean number of behaviors per 5 minute block ([1]; 3 mg/kg, 45 minutes): 174.0 ± 36.0 | Mean number of behaviors per 5 minute block ([1]; 3 mg/kg, 50 minutes): 119.0 ± 45.0 | Mean number of behaviors per 5 minute block ([1]; 3 mg/kg, 55 minutes): 73.0 ± 36.6 | Mean number of behaviors per 5 minute block ([1]; 3 mg/kg, 60 minutes): 47.0 ± 26.9 | Mean number of behaviors per 5 minute block ([1]; 10 mg/kg, 5 minutes): 217.0 ± 18.1 | Mean number of behaviors per 5 minute block ([1]; 10 mg/kg, 10 minutes): 16.0 ± 8.8 | Mean number of behaviors per 5 minute block ([1]; 10 mg/kg, 15 minutes): 45.0 ± 24.1 | Mean number of behaviors per 5 minute block ([1]; 10 mg/kg, 20 minutes): 84.0 ± 39.0 | Mean number of behaviors per 5 minute block ([1]; 10 mg/kg, 25 minutes): 128.0 ± 41.0 | Mean number of behaviors per 5 minute block ([1]; 10 mg/kg, 30 minutes): 151.0 ± 40.9 | Mean number of behaviors per 5 minute block ([1]; 10 mg/kg, 35 minutes): 152.0 ± 41.1 | Mean number of behaviors per 5 minute block ([1]; 10 mg/kg, 40 minutes): 138.0 ± 39.4 | Mean number of behaviors per 5 minute block ([1]; 10 mg/kg, 45 minutes): 67.0 ± 26.7 | Mean number of behaviors per 5 minute block ([1]; 10 mg/kg, 50 minutes): 70.0 ± 27.8 | Mean number of behaviors per 5 minute block ([1]; 10 mg/kg, 55 minutes): 42.0 ± 13.8 | Mean number of behaviors per 5 minute block ([1]; 10 mg/kg, 60 minutes): 45.0 ± 25.2 | Mean number of behaviors per 5 minute block ([1]; 20 mg/kg, 5 minutes): 168.0 ± 24.3 | Mean number of behaviors per 5 minute block ([1]; 20 mg/kg, 10 minutes): 41.0 ± 22.4 | Mean number of behaviors per 5 minute block ([1]; 20 mg/kg, 15 minutes): 1.0 ± 0.9 | Mean number of behaviors per 5 minute block ([1]; 20 mg/kg, 20 minutes): 13.0 ± 10.2 | Mean number of behaviors per 5 minute block ([1]; 20 mg/kg, 25 minutes): 32.0 ± 13.7 | Mean number of behaviors per 5 minute block ([1]; 20 mg/kg, 30 minutes): 81.0 ± 34.3 | Mean number of behaviors per 5 minute block ([1]; 20 mg/kg, 35 minutes): 93.0 ± 41.3 | Mean number of behaviors per 5 minute block ([1]; 20 mg/kg, 40 minutes): 85.0 ± 37.2 | Mean number of behaviors per 5 minute block ([1]; 20 mg/kg, 45 minutes): 99.0 ± 34.0 | Mean number of behaviors per 5 minute block ([1]; 20 mg/kg, 50 minutes): 82.0 ± 33.8 | Mean number of behaviors per 5 minute block ([1]; 20 mg/kg, 55 minutes): 66.0 ± 36.8 | Mean number of behaviors per 5 minute block ([1]; 20 mg/kg, 60 minutes): 59.0 ± 31.1 | Synergy Score based on TNF-α inhibition (TNFα; combination with Betamethasone): 0.7 | Synergy Score based on TNF-α inhibition (TNFα; combination with Budesonide): 0.78 | Synergy Score based on TNF-α inhibition (TNFα; combination with Clobetasol): 0.75 | Synergy Score based on TNF-α inhibition (TNFα; combination with Dexamethasone): 1.2 | Synergy Score based on TNF-α inhibition (TNFα; combination with Diflorasone): 0.59 | Synergy Score based on TNF-α inhibition (TNFα; combination with Hydrocortisone): 0.78 | Synergy Score based on TNF-α inhibition (TNFα; combination with Prednisolone): 0.68 | Synergy Score based on TNF-α inhibition (TNFα; combination with Triamcinolone): 0.34
